Results published in patent US20240263138A1, “METHODS FOR PREPARING A FOOD INGREDIENT AND COMPOSITIONS PRODUCED THEREBY” (SuperMeat the Essence of Meat Ltd., priority 2021, published 2024).

System: SM ES cells
Experiment: Direct differentiation of SM ES cells cultured with oleic acid
Assay type: cell-based, chicken
Conditions: culturing in the presence of 300 uM, direct differentiation protocol
Experimental: As used herein “direct differentiation protocol” refers to the addition of FAs at high concentrations to a stem cell culture e.g., pluripotent stem cells, (above 25 uM or above 100 uM, when serum is absent or present in the culture) stem cells in order to allow the cells to accumulate fat. […] Next step was to test the ability to control the fatty acid profile of SM ES cells by growing the cells in the presence of certain or several fatty acids (FAs), dependent on the selected edible species.

Compound: CCCCCCCC/C=C\CCCCCCCC(=O)O [oleic acid]
- proportion of oleic acid (OA) within cells: double
